How the values were obtained:
multiple myeloma = assay: Myeloma response, 18FDG-PET scan; format: in vivo, human
Method: FIG. 5. ^[…]-positron emission tomography (^18FDG-PET) scans for Patient 8 (who was receiving lenalidomide) prior to kappamab treatment (Panel A) and 30 days after intravenous infusion with 3.0 mg/kg kappamab (Panel B). ^18FDG-PET scanning was performed encompassing the skull vertex down to the knees on the combined PET/Computed Tomography (CT) scanner and a contemporaneous low-dose, non-contrast CT scan was performed for the purposes of attenuation correction and to provide anatomical correlation. […] In the spine, disease is most prominent within the sacrum. In the appendicular skeleton, disease is most pronounced within the proximal femur, where a prosthetic rod is in situ. No metabolically active disease is present outside the bones. In Panel B, ^18FDG-PET scanning was performed as before to assess the response 30 days after kappamab treatment. […] Low-grade uptake on the right lower lateral chest wall was […] and may reflect physiological muscular activity.
As patients only received a single infusion of kappamab it was not anticipated that any conventional responses would be observed.

[1] = system: human anti-chimeric antibody (HACA) against kappamab; assay: Human anti-chimeric antibody (HACA) sandwich ELISA; format: in vivo; details: Day 45 post infusion, any patient
Method: Blood samples were taken at pre-infusion and at completion of the treatment phase (Day 45 post infusion) for measurement of HACA responses. The presence of HACA was measured using a validated sandwich ELISA. Briefly, kappamab was immobilized on ELISA plates and the captured antibodies were detected using biotinylated kappamab and ExtrAvidie-alkaline phosphatase (Sigma, USA) followed by the alkaline phosphatase (AP) substrate. Goat anti-human IgG was used as the positive control for the assay.

serum M protein = assay: Serum M protein after kappamab; format: in vivo, human
HGF = assay: Biomarker analysis: serum HGF; format: in vivo, human; details: adjusted for cytokine baseline differences
Method: (§1) Patient serum samples for biomarker analysis were collected approximately 30 minutes before infusion of kappamab and then at 6, 48, 192, and 1,080 hours after infusion for all patients. Samples were analysed in triplicate and serum levels of 48 human cytokines, chemokines, and growth factors were measured using the Bio-Plex Pro™ Human Cytokine 27-plex and 21-plex assays according to the manufacturer's recommendations (Bio-Rad, Carlsbad, Calif., USA; Cat No M10-0KCAF0Y, mg0-005KMII). Results were verified by repeating the 21-plex assay in triplicate and the samples were randomized across the assay plate. Pre-infusion samples were used as the baseline (t=0) for the analysis.
(§2) Multivariate analysis of the biomarker data was performed using R version 3.1.0 (2014-04-10) software (http://www.R-project.org/). Linear mixed effects modelling was completed using 1me4 (Bates et al. 2015). […]
(§3) To find significance between kappamab dose, time, and cytokine expression levels, we fitted a linear mixed-effects model that modelled cytokine fluorescence expression levels with fixed-effects terms for baseline cytokine fluorescence expression, kappamab dose (with 4 levels: 0.3, 1.0, 3.0, and 10 mg/kg), time (treated as factor with 5 levels), and cytokine with 48 levels, plus their interactions, with a random effect associated with patient (12 levels) and plex (2 levels). […]

G-CSF = assay: Biomarker analysis: serum G-CSF; format: in vivo, human; details: adjusted for cytokine baseline differences
Method: as §1, §2, §3

serum κFLC = assay: Serum κFLC pharmacodynamics (FreeLite assay); format: in vivo, human
Excerpt: Serum FLC levels were quantified using the FreeLite™ assay (The Binding Site Group Ltd, Birmingham, UK). […] Twenty-four-hour urine collection for urine protein electrophoresis immunofixation, urine FLC measurement (FreeLite™ assay), and creatinine clearance were collected on the day of infusion and on Day 45.

CXCL9 = assay: Biomarker analysis: serum CXCL9; format: in vivo, human; details: adjusted for cytokine baseline differences
Method: as §1, §2, §3

For “kappamab: humanized form of K121 anti-KMA antibody; VH SEQ ID NO: 1, VL SEQ ID NO: 2”, the 18FDG-PET metabolic response (multiple myeloma; Patient 8 (receiving lenalidomide), 3 mg/kg, 30 days after infusion versus baseline scan, 3 mg/kg) was “favourable and almost complete metabolic response”, the Symptomatic improvement (multiple myeloma; Patient 8, 3 mg/kg) was “diminished bone pain and normalization of kidney function” and the “HACA response to kappamab” value [1] was “no antibody responses to kappamab were detected”. For the same substance, the “Patients with minor dose-related decreases in serum M protein” value (serum M protein; 7/11 patients) was 64%, the “Serum M protein response versus IMWG response criteria” value (serum M protein; in vivo) was “did not meet the IMWG response criteria” and the “Change in serum concentration” value (HGF) was “dose-related decreases”. The “Change in serum concentration” value (G-CSF) was “dose-related decreases”, the “Serum κFLC higher than baseline” value (serum κFLC; Patient 2, during the study) was “up to 136%” and the “Serum κFLC higher than baseline” value (serum κFLC; Patient 7, Day 1) was 83%. The “Serum κFLC increase from baseline” value (serum κFLC; Patient 7, Day 30) was 178%, the “Serum κFLC increase from baseline” value (serum κFLC; Patient 7, Day 45) was 198% and the “Serum κFLC versus baseline” value (serum κFLC; Patient 7, by Day 105 post infusion) was “returned to below baseline”. For the same substance, the “Serum κFLC increase from baseline” value (serum κFLC; Patient 13, 6 hours after IV infusion) was 690%, the “Serum κFLC below baseline” value (serum κFLC; Patient 13, Day 45, remained for 3 months) was 55% and the “Patients with decreases in serum κFLC below baseline” value (serum κFLC; after Day 15, 8/12 patients) was 67%. The “Change in serum κFLC levels following IV infusion” value (serum κFLC; all patients) was “increase”, the “Serum κFLC versus baseline” value (serum κFLC; by Day 45, majority of patients) was “generally similar to baseline values” and the “Dose dependency between serum κFLC increase and kappamab concentration” value (serum κFLC; in vivo) was “no clear dose dependency”. For the same substance, the “Change in serum concentration” value (CXCL9) was “dose-related decreases”.
